Laboratory results: the supplement of paper PMC10307832

Experiments:
Experiment in all cases: relative viability (nuclei count vs DMSO), 5 days (fraction); higher = more cells survive
Dovitinib + Crizotinib = compound: CN1CCN(c2ccc3nc(-c4c(N)c5c(F)cccc5[nH]c4=O)[nH]c3c2)CC1 [Dovitinib] + C[C@@H](Oc1cc(-c2cnn(C3CCNCC3)c2)cnc1N)c1c(Cl)ccc(F)c1Cl [Crizotinib] (partner 1 µM)
Method in brief: (§1)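 One day after seeding in 1536-well plates, lung cancer cell lines were dosed by pin tool. Dosing was either single-drug or a fixed anchor-drug dose plus five library-drug doses (not always all listed) in √10 steps. After 5 days, nuclei were stained in one fix-and-stain step and counted on 4× images, and relative viability is the nuclei count of treated wells over that of vehicle wells, given as the median of duplicate plates.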

Dovitinib + Phenformin = compound: CN1CCN(c2ccc3nc(-c4c(N)c5c(F)cccc5[nH]c4=O)[nH]c3c2)CC1 [Dovitinib] + N=C(N)NC(=N)NCCc1ccccc1 [Phenformin] (partner 250 µM)
Method in brief: as §1

Dovitinib + Navitoclax = compound: CN1CCN(c2ccc3nc(-c4c(N)c5c(F)cccc5[nH]c4=O)[nH]c3c2)CC1 [Dovitinib] + CC1(C)CCC(c2ccc(Cl)cc2)=C(CN2CCN(c3ccc(C(=O)NS(=O)(=O)c4ccc(N[C@H](CCN5CCOCC5)CSc5ccccc5)c(S(=O)(=O)C(F)(F)F)c4)cc3)CC2)C1 [Navitoclax] (partner 0.5 µM)
Method in brief: as §1

Dovitinib + Decitabine = compound: CN1CCN(c2ccc3nc(-c4c(N)c5c(F)cccc5[nH]c4=O)[nH]c3c2)CC1 [Dovitinib] + Nc1ncn([C@H]2C[C@H](O)[C@@H](CO)O2)c(=O)n1 [Decitabine] (partner 2 µM)
Method in brief: as §1

Cell Line	relative viability (Dovitinib + Crizotinib; first compound 0.02 µM)	relative viability (Dovitinib + Crizotinib; first compound 0.06325 µM)	relative viability (Dovitinib + Crizotinib; first compound 0.6325 µM)	relative viability (Dovitinib + Crizotinib; first compound 2 µM)	relative viability (Dovitinib + Phenformin; first compound 0.02 µM)	relative viability (Dovitinib + Phenformin; first compound 0.06325 µM)	relative viability (Dovitinib + Phenformin; first compound 0.2 µM)	relative viability (Dovitinib + Phenformin; first compound 0.6325 µM)	relative viability (Dovitinib + Phenformin; first compound 2 µM)	relative viability (Dovitinib + Navitoclax; first compound 0.02 µM)	relative viability (Dovitinib + Navitoclax; first compound 0.06325 µM)	relative viability (Dovitinib + Navitoclax; first compound 0.6325 µM)	relative viability (Dovitinib + Navitoclax; first compound 2 µM)	relative viability (Dovitinib + Decitabine; first compound 0.02 µM)	relative viability (Dovitinib + Decitabine; first compound 0.06325 µM)	relative viability (Dovitinib + Decitabine; first compound 0.2 µM)	relative viability (Dovitinib + Decitabine; first compound 0.6325 µM)	relative viability (Dovitinib + Decitabine; first compound 2 µM)	relative viability (Dovitinib + Crizotinib; first compound 0.2 µM)	relative viability (Dovitinib + Navitoclax; first compound 0.2 µM)
201T	1.03	0.935	0.992	1.01	0.449	0.42	0.463	0.409	0.459	1.12	1.21	1.22	1.21	0.817	0.857	0.839	0.844	0.871	–	–
A549	0.702	0.763	0.694	0.733	0.145	0.174	0.284	0.113	0.201	1.21	1.11	1.19	1.14	0.225	0.329	0.248	0.292	0.237	0.741	1.24
A-427	0.854	0.812	0.708	0.819	0.363	0.3	0.307	0.282	0.347	0.91	0.933	0.902	0.822	0.569	0.512	0.695	0.581	0.59	0.85	0.942
ABC-1	1.54	1.19	1.2	1.08	0.211	0.317	0.243	0.237	0.204	–	–	–	–	1.08	0.991	1.03	0.891	1.14	1.22	–
BEN	0.864	0.903	0.827	0.887	0.248	0.288	0.281	0.296	0.305	0.0734	0.0569	0.0923	0.0738	0.754	0.599	0.683	0.783	0.71	0.912	0.0676
CAL-12T	0.532	0.628	0.635	0.661	0.585	0.624	0.556	0.616	0.664	1.24	1.12	1.17	1.42	–	–	–	–	–	0.654	1.43
COR-L23	0.655	0.526	0.55	0.756	0.416	0.467	0.478	0.455	0.507	0.962	1.19	1.05	1.07	0.439	0.43	0.438	0.501	0.484	0.638	1.02
COR-L 105	0.706	0.832	0.701	0.69	0.396	0.52	0.506	0.486	0.62	0.701	0.62	0.646	0.806	0.596	0.622	0.619	0.657	0.646	0.774	0.754
Calu-6	0.674	0.827	0.847	0.779	–	–	–	–	–	0.828	0.784	0.813	0.782	–	–	–	–	–	0.665	0.828
ChaGo-K-1	1.03	1.08	1.11	1.15	0.469	0.534	0.499	0.476	0.51	1.01	0.976	1.14	1.18	0.528	0.517	0.498	0.514	0.487	1.09	0.975
EBC-1	0.177	0.212	0.162	0.208	–	–	–	–	–	0.475	0.38	0.384	0.55	–	–	–	–	–	0.193	0.421
EKVX	0.937	0.975	0.988	0.906	0.217	0.225	0.232	0.253	0.236	0.923	0.989	0.989	0.883	0.388	0.399	0.348	0.339	0.286	1.08	1.1
EMC-BAC-2	0.702	0.699	0.62	0.776	0.527	0.482	0.538	0.471	0.542	1.12	1.2	1.15	1.13	1.1	0.958	1.06	1	1.01	0.749	1.12
EPLC-272H	0.799	0.994	1.09	0.972	0.323	0.309	0.274	0.384	0.317	1.05	0.993	1.49	0.97	0.403	0.333	0.336	0.372	0.374	0.981	1.24
H3255	0.898	0.903	0.929	0.871	0.378	0.347	0.381	0.372	0.441	0.627	0.532	0.559	0.582	0.609	0.642	0.603	0.636	0.614	0.854	0.569
HARA	1.07	1.08	1.1	1.07	0.537	0.476	0.47	0.362	0.53	1.16	1.16	1.15	1.15	0.733	0.618	0.508	0.57	0.465	0.985	1.12
HCC-15	0.756	0.841	0.79	0.812	0.482	0.475	0.502	0.436	0.472	0.777	0.701	0.708	0.7	0.684	0.746	0.686	0.676	0.619	0.719	0.707

Cell Line	relative viability (Dovitinib + Crizotinib; first compound 0.02 µM)	relative viability (Dovitinib + Crizotinib; first compound 0.06325 µM)	relative viability (Dovitinib + Crizotinib; first compound 0.6325 µM)	relative viability (Dovitinib + Crizotinib; first compound 2 µM)	relative viability (Dovitinib + Phenformin; first compound 0.02 µM)	relative viability (Dovitinib + Phenformin; first compound 0.06325 µM)	relative viability (Dovitinib + Phenformin; first compound 0.2 µM)	relative viability (Dovitinib + Phenformin; first compound 0.6325 µM)	relative viability (Dovitinib + Phenformin; first compound 2 µM)	relative viability (Dovitinib + Navitoclax; first compound 0.02 µM)	relative viability (Dovitinib + Navitoclax; first compound 0.06325 µM)	relative viability (Dovitinib + Navitoclax; first compound 0.6325 µM)	relative viability (Dovitinib + Navitoclax; first compound 2 µM)	relative viability (Dovitinib + Decitabine; first compound 0.02 µM)	relative viability (Dovitinib + Decitabine; first compound 0.06325 µM)	relative viability (Dovitinib + Decitabine; first compound 0.2 µM)	relative viability (Dovitinib + Decitabine; first compound 0.6325 µM)	relative viability (Dovitinib + Decitabine; first compound 2 µM)	relative viability (Dovitinib + Crizotinib; first compound 0.2 µM)	relative viability (Dovitinib + Navitoclax; first compound 0.2 µM)
HCC-44	0.668	0.793	0.745	0.777	0.294	0.138	0.174	0.229	0.197	0.954	0.925	0.974	0.876	0.926	0.936	0.97	0.962	0.92	0.76	0.923
HCC-78	0.334	–	0.347	0.363	0.769	0.688	0.716	0.902	0.729	0.784	–	0.754	0.772	0.741	0.659	0.686	0.655	0.631	0.356	0.827
IA-LM	0.678	0.838	0.722	0.682	–	–	–	–	–	0.778	0.961	0.704	0.76	–	–	–	–	–	0.73	0.814
LCLC-103H	0.992	0.978	0.946	0.916	0.357	0.331	0.336	0.345	0.305	–	–	–	–	0.722	0.775	0.75	0.758	0.739	0.993	–
NCI-H358	0.569	0.566	0.459	0.793	0.291	0.357	0.408	0.317	0.319	–	–	–	–	0.237	0.214	0.247	0.238	0.206	0.507	–
NCI-H522	–	–	–	–	0.637	0.686	0.583	0.625	0.769	–	–	–	–	0.651	0.647	0.665	0.727	0.785	–	–
NCI-H650	0.771	0.638	0.645	0.789	0.442	0.417	0.446	0.461	0.504	–	–	–	–	0.29	0.309	0.331	0.333	0.279	0.563	–
NCI-H661	0.915	0.863	0.942	0.891	0.267	0.328	0.304	0.268	0.308	–	–	–	–	0.573	0.591	0.652	0.571	0.595	0.928	–
NCI-H1299	0.941	0.968	0.942	1.01	–	–	–	–	–	1.01	1.04	1.05	1.08	–	–	–	–	–	0.915	1.09
NCI-H1395	–	–	–	–	0.455	0.415	0.488	0.445	0.462	1.26	1.53	1.01	1.21	0.719	0.668	0.747	0.713	0.696	–	1.26
NCI-H1563	0.829	0.855	0.838	0.814	0.591	0.669	0.665	0.656	0.664	–	–	–	–	–	–	–	–	–	0.839	–
NCI-H1648	–	–	–	–	–	–	–	–	–	–	–	–	–	0.502	0.445	0.444	0.455	0.458	–	–
NCI-H1703	0.651	0.836	0.547	0.31	–	–	–	–	–	1.18	1.41	0.775	0.33	–	–	–	–	–	0.779	0.84
NCI-H1793	–	–	–	–	0.41	0.326	0.368	0.283	0.515	0.407	0.359	0.476	0.373	0.548	0.602	0.567	0.446	0.498	–	0.456
NCI-H2228	0.399	0.379	0.454	0.367	0.288	0.419	0.285	0.432	0.285	0.897	1.16	0.908	0.885	–	–	–	–	–	0.436	0.833
NCI-H2342	–	–	–	–	0.709	0.561	0.618	0.657	0.701	–	–	–	–	0.799	0.697	0.672	0.756	0.776	–	–
SW 900	–	–	–	–	0.83	0.834	0.478	0.618	0.554	–	–	–	–	0.395	0.456	0.444	0.377	0.444	–	–
